Data reported in US9539273B2, “Targeted delivery of anti-fungal agents” (EDH Biotech Corp, priority 2013, dated 2017).

experiment: Binding of stilbene derivatives to chitosan, dissociation constants by indirect difference spectroscopy; conditions: qualitative statement on binding affinity
Description: Binding studies of stilbene derivatives to chitosan or MHEC

SMILES | binding to chitosan (in words)
O=S(=O)(O)c1cc(Nc2nc(NCCO)nc(Nc3ccccc3)n2)ccc1C=Cc1ccc(Nc2nc(NCCO)nc(Nc3ccccc3)n2)cc1S(=O)(=O)O [OB85] | no significant improvement in binding
Nc1ccc(C=Cc2ccc(N)cc2S(=O)(=O)O)c(S(=O)(=O)O)c1 [4,4′-diaminostilbene-2,2′-disulfonic acid] | neither the core structure itself nor its bis(dichlorotriazine) derivative (R^4a═R^6a═R^4b═R^6b═Cl) binds to chitosan
O=S(=O)(O)c1cc(Nc2nc(Nc3ccccc3)nc(N(CCO)CCO)n2)ccc1/C=C/c1ccc(Nc2nc(Nc3ccccc3)nc(N(CCO)CCO)n2)cc1S(=O)(=O)O [calcofluor white] | no significant improvement in binding
